Reference: patent US20160220587A1, “VITAMIN D COMPLEXES WITH DE-VDBP AND AN UNSATURATED FATTY ACID, AND THEIR USE IN THERAPY” (priority 2013, published 2016)
Where no end group is shown, it is not given here.

How the values were obtained:
[1] = target: T1, VDBP (Homo sapiens, UniProt P02774); settings: relative to vitamin D3; Am J Kidney Dis, 1998; 32:S25-39; cited from earlier work
T1 sequence (P02774 17-474): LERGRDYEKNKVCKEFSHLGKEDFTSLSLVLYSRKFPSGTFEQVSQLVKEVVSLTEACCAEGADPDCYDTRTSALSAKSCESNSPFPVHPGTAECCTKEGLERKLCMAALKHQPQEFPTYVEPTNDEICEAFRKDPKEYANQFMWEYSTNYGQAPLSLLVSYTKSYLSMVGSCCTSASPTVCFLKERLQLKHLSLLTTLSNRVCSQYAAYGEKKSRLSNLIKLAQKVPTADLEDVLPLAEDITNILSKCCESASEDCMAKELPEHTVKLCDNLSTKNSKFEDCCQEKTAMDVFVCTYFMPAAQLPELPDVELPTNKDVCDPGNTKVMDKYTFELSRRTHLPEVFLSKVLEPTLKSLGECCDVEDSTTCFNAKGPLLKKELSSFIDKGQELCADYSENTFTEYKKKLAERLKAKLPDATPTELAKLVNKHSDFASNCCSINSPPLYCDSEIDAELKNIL

[2] = tested on: MCF-7 human breast cancer cell; assay: MCF-7 cell proliferation (Calbiochem Rapid Cell Proliferation Kit); format: cell-based; settings: for Absorbance units (×10^3), cell proliferation: control (no addition) 450 ± 21
Protocol: The biological activity of the molecules and the multimolecular complexes described in the preceding sections was tested in an in vitro system (MCF-7 human breast cancer cell cultures) that is routinely used to assess the biological activity of vitamin D3 and of the other components of the vitamin D axis (Evid Based Complement Alternat Med. 2012; 2012:310872. Oncol Rep. 2012 December; 28(6):2131-7. Anticancer Res. 2012 March; 32(3):739-46). Human breast carcinoma cells MCF-7 were challenged with different concentration of vitamin D3, de-VDBP, and [vitamin D3/de-VDBP/oleic acid]. […] The same level of inhibition, however, could be achieved with 1000 fold less vitamin D3 when it was complexed with de-VDBP and oleic acid.

In the case of `C=C1/C(=C\C=C2/CCC[C@]3(C)[C@@H]([C@H](C)OCCC(C)(C)O)CC[C@@H]23)C[C@@H](O)C[C@@H]1O` [22-oxacalcitriol], the VDBP affinity [1] is listed as “low”.

For `[2H]C([2H])=C1/C(=C([2H])\C=C2/CCC[C@]3(C)[C@@H]([C@H](C)CCCC(C)(C)O)CC[C@@H]23)C[C@@H](O)C[C@@H]1O` [Vitamin D3, 1α,25-Dihydroxyvitamin D3 (6,19,19-d3)], the “Absorbance units (×10^3), cell proliferation” value (“Absorbance units” below) ([2]; Vitamin D3 1 nM) was 425 ± 10 Absorbance units (×10^3), the “Absorbance units” value ([2]; Vitamin D3 1 uM) was 55 ± 10 Absorbance units (×10^3) and the “Concentration giving maximal inhibition of MCF-7 proliferation” value ([2]; very high, non-physiological concentration) was 1 µM.

In the case of `C=C1/C(=C\C=C2/CCC[C@]3(C)[C@@H]([C@H](C)/C=C/[C@@H](O)C4CC4)CC[C@@H]23)C[C@@H](O)C[C@@H]1O` [calcipotriene], the VDBP affinity [1] is listed as “low”.

For “de-VDBP: vitamin D binding protein de-glycosylated at position Thr 420 by sequential removal of sialic acid and galactose (DSTTCFNAKGPLLKKELSSFIDKGQELC; cysteine pairing not given here; also: de-glycosylated at Thr 420 by removal of sialic acid and galactose; listed as Homo sapiens)”, the “Absorbance units” value ([2]; de-VDBP 1 ng/ml) was 395 ± 37 Absorbance units (×10^3).

B1: [Vitamin D3 1 nM/de-VDBP 1 ng/ml/oleic acid 1/1]: trimeric complex of vitamin D3 and oleic acid bound to de-VDBP via hydrophobic interactions (protein, UniProt P02774 17-474, looked up)
Vitamin D-binding protein: LERGRDYEKNKVCKEFSHLGKEDFTSLSLVLYSRKFPSGTFEQVSQLVKEVVSLTEACCAEGADPDCYDTRTSALSAKSCESNSPFPVHPGTAECCTKEGLERKLCMAALKHQPQEFPTYVEPTNDEICEAFRKDPKEYANQFMWEYSTNYGQAPLSLLVSYTKSYLSMVGSCCTSASPTVCFLKERLQLKHLSLLTTLSNRVCSQYAAYGEKKSRLSNLIKLAQKVPTADLEDVLPLAEDITNILSKCCESASEDCMAKELPEHTVKLCDNLSTKNSKFEDCCQEKTAMDVFVCTYFMPAAQLPELPDVELPTNKDVCDPGNTKVMDKYTFELSRRTHLPEVFLSKVLEPTLKSLGECCDVEDSTTCFNAKGPLLKKELSSFIDKGQELCADYSENTFTEYKKKLAERLKAKLPDATPTELAKLVNKHSDFASNCCSINSPPLYCDSEIDAELKNIL
modifications: deglycosylated; vitamin D3 and oleic acid bound
For B1, the “Absorbance units” value ([2]; Vitamin D3 1 nM / de-VDBP 1 ng/ml / oleic acid ratio 1/1) was 55 ± 9 Absorbance units (×10^3) and the “Fold less vitamin D3 needed for the same level of inhibition” value ([2]; versus 1 uM vitamin D3 alone) was 1000 fold.
